# Columns and labels:
# M14 = assay: Growth inhibition of human M14 cells after 48 hrs by sulforhodamine B assay; format: functional; details: M14, 48 h
# [1] = Growth inhibition of human HCT15 cells after 48 hrs by sulforhodamine B assay; format: functional; details: HCT-15, 48 h
# CCRF-CEM = assay: Growth inhibition of human CCRF-CEM cells after 48 hrs by sulforhodamine B assay; format: functional
# [2] = Growth inhibition of human OVCAR3 cells after 48 hrs by sulforhodamine B assay; format: functional; details: OVCAR-3, 48 h
# [3] = Growth inhibition of human BT549 cells after 48 hrs by sulforhodamine B assay; format: functional; details: BT-549, 48 h
# NCI-H522 = assay: Growth inhibition of human NCI-H522 cells after 48 hrs by sulforhodamine B assay; format: functional; details: NCI-H522, 48 h
# NCI-H322M = assay: Growth inhibition of human NCI-H322M cells after 48 hrs by sulforhodamine B assay; format: functional
# SNB-19 = assay: Growth inhibition of human SNB19 cells after 48 hrs by sulforhodamine B assay; format: functional; details: SNB-19, 48 h
# MDA-MB-231 = assay: Growth inhibition of human MDA-MB-231 cells after 48 hrs by sulforhodamine B assay; format: functional; details: MDA-MB-231, 48 h
# [4] = Growth inhibition of human SF539 cells after 48 hrs by sulforhodamine B assay; format: functional; details: SF-539, 48 h
# SK-MEL-28 = assay: Growth inhibition of human SK-MEL-28 cells after 48 hrs by sulforhodamine B assay; format: functional; details: SK-MEL-28, 48 h
# [5] = Growth inhibition of human OVCAR4 cells after 48 hrs by sulforhodamine B assay; format: functional; details: OVCAR-4, 48 h
# Paracentrotus lividus [6] = assay: Antimitotic microtubule destabilizing activity in Paracentrotus lividus L embryos assessed as induction of cleavage alteration
# DU-145 = assay: Growth inhibition of human DU145 cells after 48 hrs by sulforhodamine B assay; format: functional; details: DU-145, 48 h
# [7] = Growth inhibition of human HCC2998 cells after 48 hrs by sulforhodamine B assay; format: functional; details: HCC 2998, 48 h
# IGROV-1 = assay: Growth inhibition of human IGROV1 cells after 48 hrs by sulforhodamine B assay; format: functional; details: IGROV-1, 48 h
# [8] = Growth inhibition of human NCI-ADR-RES cells after 48 hrs by sulforhodamine B assay; format: functional
# [9] = Growth inhibition of human HCT116 cells after 48 hrs by sulforhodamine B assay; format: functional; details: HCT-116, 48 h
# NCI-H460 = assay: Growth inhibition of human NCI-H460 cells after 48 hrs by sulforhodamine B assay; format: functional; details: NCI-H460, 48 h
# ACHN = assay: Growth inhibition of human ACHN cells after 48 hrs by sulforhodamine B assay; format: functional
# NCI-H226 = assay: Growth inhibition of human NCI-H226 cells after 48 hrs by sulforhodamine B assay; format: functional; details: NCI-H226, 48 h
# NCI-H23 = assay: Growth inhibition of human NCI-H23 cells after 48 hrs by sulforhodamine B assay; format: functional; details: NCI-H23, 48 h
# K562 = assay: Growth inhibition of human K562 cells after 48 hrs by sulforhodamine B assay; format: functional; details: K562, 48 h
# [10] = Growth inhibition of human EKVX cells after 48 hrs by sulforhodamine B assay; format: functional
# HL-60(TB) = assay: Growth inhibition of human HL-60(TB) cells after 48 hrs by sulforhodamine B assay; format: functional; details: HL-60, 48 h
# MCF7 = assay: Growth inhibition of human MCF7 cells after 48 hrs by sulforhodamine B assay; format: functional; details: MCF7, 48 h
# TK-10 = assay: Growth inhibition of human TK10 cells after 48 hrs by sulforhodamine B assay; format: functional; details: TK-10, 48 h
# [11] = Growth inhibition of human PC3 cells after 48 hrs by sulforhodamine B assay; format: functional; details: PC-3, 48 h
# 786-0 = assay: Growth inhibition of human 786-0 cells after 48 hrs by sulforhodamine B assay; format: functional; details: 786-0, 48 h
# SK-MEL-2 = assay: Growth inhibition of human SK-MEL-2 cells after 48 hrs by sulforhodamine B assay; format: functional; details: SK-MEL-2, 48 h
# [12] = Growth inhibition of human UACC62 cells after 48 hrs by sulforhodamine B assay; format: functional; details: UACC-62, 48 h
# [13] = Growth inhibition of human SF295 cells after 48 hrs by sulforhodamine B assay; format: functional; details: SF-295, 48 h
# SK-OV-3 = assay: Growth inhibition of human SKOV3 cells after 48 hrs by sulforhodamine B assay; format: functional; details: SK-OV-3, 48 h
# SF-268 = assay: Growth inhibition of human SF268 cells after 48 hrs by sulforhodamine B assay; format: functional; details: SF-268, 48 h
# SK-MEL-5 = assay: Growth inhibition of human SK-MEL-5 cells after 48 hrs by sulforhodamine B assay; format: functional; details: SK-MEL-5, 48 h
# Paracentrotus lividus [14] = assay: Antimitotic microtubule destabilizing activity in Paracentrotus lividus L embryos assessed as induction of embryo spinning
# Paracentrotus lividus [15] = assay: Antimitotic microtubule destabilizing activity in Paracentrotus lividus L embryos assessed as induction of cleavage arrest
# [16] = Growth inhibition of human RPMI8226 cells after 48 hrs by sulforhodamine B assay; format: functional; details: RPMI-8226, 48 h
# [17] = Growth inhibition of human LOXIMVI cells after 48 hrs by sulforhodamine B assay; format: functional; details: LOX IMVI
# SN12C = assay: Growth inhibition of human SN12C cells after 48 hrs by sulforhodamine B assay; format: functional
# [18] = Growth inhibition of human OVCAR5 cells after 48 hrs by sulforhodamine B assay; format: functional; details: OVCAR-5, 48 h
# A549 = assay: Growth inhibition of human A549/ATCC cells after 48 hrs by sulforhodamine B assay; format: functional; details: A549, 48 h
# HOP-62 = assay: Growth inhibition of human HOP62 cells after 48 hrs by sulforhodamine B assay; format: functional; details: HOP-62, 48 h
# KM12 = assay: Growth inhibition of human KM12 cells after 48 hrs by sulforhodamine B assay; format: functional; details: KM12, 48 h
# A498 = assay: Growth inhibition of human A498 cells after 48 hrs by sulforhodamine B assay; format: functional; details: A498, 48 h
# [19] = Growth inhibition of human RXF393 cells after 48 hrs by sulforhodamine B assay; format: functional; details: RXF 393, 48 h
# MDA-MB-435 = assay: Growth inhibition of human MDA-MB-435 cells after 48 hrs by sulforhodamine B assay; format: functional; details: MDA-MB-435, 48 h
# HT-29 = assay: Growth inhibition of human HT-29 cells after 48 hrs by sulforhodamine B assay; format: functional; details: HT-29, 48 h
# [20] = Growth inhibition of human MOLT4 cells after 48 hrs by sulforhodamine B assay; format: functional; details: MOLT-4, 48 h
# [21] = Growth inhibition of human HOP92 cells after 48 hrs by sulforhodamine B assay; format: functional; details: HOP-92, 48 h
# SR = assay: Growth inhibition of human SR cells after 48 hrs by sulforhodamine B assay; format: functional
# [22] = Growth inhibition of human OVCAR8 cells after 48 hrs by sulforhodamine B assay; format: functional; details: OVCAR-8, 48 h
# CAKI-1 = assay: Growth inhibition of human CAKI-1 cells after 48 hrs by sulforhodamine B assay; format: functional; details: CAKI-1, 48 h
# MDA-MB-468 = assay: Growth inhibition of human MDA-MB-468 cells after 48 hrs by sulforhodamine B assay; format: functional; details: MDA-MB-468, 48 h
# [23] = Growth inhibition of human UO31 cells after 48 hrs by sulforhodamine B assay; format: functional; details: UO-31, 48 h
# [24] = Growth inhibition of human Hs 578T cells after 48 hrs by sulforhodamine B assay; format: functional
# U-251 = assay: Growth inhibition of human U251 cells after 48 hrs by sulforhodamine B assay; format: functional; details: U-251, 48 h
# SW-620 = assay: Growth inhibition of human SW620 cells after 48 hrs by sulforhodamine B assay; format: functional; details: SW-620, 48 h
# [25] = Growth inhibition of human COLO205 cells after 48 hrs by sulforhodamine B assay; format: functional; details: COLO 205, 48 h
# [26] = Cytotoxicity against human NCI60 cells; format: functional
# SNB-75 = assay: Growth inhibition of human SNB75 cells after 48 hrs by sulforhodamine B assay; format: functional; details: SNB-75, 48 h
# T47D = assay: Growth inhibition of human T47D cells after 48 hrs by sulforhodamine B assay; format: functional
# [27] = Growth inhibition of human UACC257 cells after 48 hrs by sulforhodamine B assay; format: functional; details: UACC-257, 48 h
# Malme-3M = assay: Growth inhibition of human MALME-3M cells after 48 hrs by sulforhodamine B assay; format: functional
smiles,measurement,setting,value
COc1cc(C2C(C#N)=C(N)Oc3cc(O)ccc32)cc(OC)c1OC (configuration not stated),GI50,M14,375 nM
same,GI50,[1],513 nM
same,GI50,CCRF-CEM,375 nM
same,GI50,[2],338 nM
same,GI50,[3],386 nM
same,GI50,NCI-H522,255 nM
same,GI50,NCI-H322M,783 nM
same,GI50,SNB-19,811 nM
same,GI50,MDA-MB-231,927 nM
same,GI50,[4],347 nM
same,GI50,SK-MEL-28,934 nM
same,GI50,[5],3490 nM
same,EC,Paracentrotus lividus [6],4 µM
same,GI50,DU-145,637 nM
same,GI50,[7],975 nM
same,GI50,IGROV-1,2840 nM
same,GI50,[8],2320 nM
same,GI50,[9],453 nM
same,GI50,NCI-H460,374 nM
same,GI50,ACHN,922 nM
same,GI50,NCI-H226,31200 nM
same,GI50,NCI-H23,813 nM
same,GI50,K562,460 nM
same,GI50,[10],6490 nM
same,GI50,HL-60(TB),327 nM
same,GI50,MCF7,324 nM
same,GI50,TK-10,9830 nM
same,GI50,[11],462 nM
same,GI50,786-0,605 nM
same,GI50,SK-MEL-2,539 nM
same,GI50,[12],358 nM
same,GI50,[13],323 nM
same,GI50,SK-OV-3,560 nM
same,GI50,SF-268,14500 nM
same,GI50,SK-MEL-5,305 nM
same,EC,Paracentrotus lividus [14],> 4 µM
same,EC,Paracentrotus lividus [15],> 4 µM
same,GI50,[16],691 nM
same,GI50,[17],523 nM
same,GI50,SN12C,790 nM
same,GI50,[18],4520 nM
same,GI50,A549,638 nM
same,GI50,HOP-62,796 nM
same,GI50,KM12,451 nM
same,GI50,A498,161 nM
same,GI50,[19],287 nM
same,GI50,MDA-MB-435,136 nM
same,GI50,HT-29,392 nM
same,GI50,[20],652 nM
same,GI50,[21],301 nM
same,GI50,SR,371 nM
same,GI50,[22],836 nM
same,GI50,CAKI-1,885 nM
same,GI50,MDA-MB-468,250 nM
same,GI50,[23],2800 nM
same,GI50,[24],463 nM
same,GI50,U-251,349 nM
same,GI50,SW-620,347 nM
same,GI50,[25],852 nM
same,GI50,[26],692 nM
same,GI50,SNB-75,271 nM
COc1cccc(C2C(C#N)=C(N)Oc3cc4c(cc32)OCO4)c1 (configuration not stated),GI50,M14,54.9 nM
same,GI50,[1],44.7 nM
same,GI50,T47D,50.2 nM
same,GI50,CCRF-CEM,36 nM
same,GI50,[2],25.6 nM
same,GI50,[3],87.4 nM
same,GI50,NCI-H522,23.1 nM
same,GI50,NCI-H322M,2110 nM
same,GI50,SNB-19,54.3 nM
same,GI50,MDA-MB-231,2170 nM
same,GI50,[4],34.4 nM
same,GI50,SK-MEL-28,70 nM
same,GI50,[5],2510 nM
same,EC,Paracentrotus lividus [6],0.005 µM
same,GI50,DU-145,84.5 nM
same,GI50,[7],101 nM
same,GI50,IGROV-1,97.3 nM
same,GI50,[8],30.2 nM
same,GI50,[9],49.8 nM
same,GI50,NCI-H460,44 nM
same,GI50,NCI-H226,45.5 nM
same,GI50,NCI-H23,97.7 nM
same,GI50,[10],259 nM
same,GI50,HL-60(TB),24.2 nM
same,GI50,MCF7,36.4 nM
same,GI50,TK-10,6010 nM
same,GI50,[27],47.1 nM
same,GI50,[11],65.6 nM
same,GI50,786-0,58.7 nM
same,GI50,SK-MEL-2,30.1 nM
same,GI50,[12],43.4 nM
same,GI50,[13],34.4 nM
same,GI50,SK-OV-3,36.2 nM
same,GI50,SF-268,54.1 nM
same,GI50,SK-MEL-5,37.8 nM
same,EC,Paracentrotus lividus [14],0.2 µM
same,EC,Paracentrotus lividus [15],0.05 µM
same,GI50,[16],105 nM
same,GI50,[17],46 nM
same,GI50,SN12C,79.2 nM
same,GI50,[18],447 nM
same,GI50,A549,62.5 nM
same,GI50,HOP-62,43.2 nM
same,GI50,KM12,36.5 nM
same,GI50,A498,29.1 nM
same,GI50,[19],29 nM
same,GI50,MDA-MB-435,20.3 nM
same,GI50,Malme-3M,50.1 nM
same,GI50,HT-29,46.2 nM
same,GI50,[20],6.17 nM
same,GI50,SR,30.2 nM
same,GI50,[22],97.1 nM
same,GI50,CAKI-1,40.9 nM
same,GI50,MDA-MB-468,25.4 nM
same,GI50,[23],58.9 nM
same,GI50,[24],31.6 nM
same,GI50,U-251,46.2 nM
same,GI50,SW-620,36.5 nM
same,GI50,[25],43.2 nM
same,GI50,[26],65 nM
same,GI50,SNB-75,23.8 nM

# From ChEMBL document CHEMBL3352739, “Comparative in vivo evaluation of polyalkoxy substituted 4H-chromenes and oxa-podophyllotoxins as microtubule destabilizing agents in the phenotypic sea urchin embryo assay” (2014)
